Assay results published in patent US5260309A, “4,5,6,11-tetrahydrobenzo [6,7] cycloocta [1,2-b]thiophen-6,11-imines and 6,11-dihydrobenzo [6,7] cycloocta [1,2-b] thiophen-6,11-imines” (Pfizer Inc., priority 1992, dated 1993).
pIC50: −log10 of the molar value.

Test system: P2 membranes from rat forebrain (3H-TCP binding)
Experiment: 3H-TCP binding assay (displacement of 3H-TCP from P2 membranes from rat forebrain)
Conditions: activity ratio (+)-enantiomer vs (-)-enantiomer
Description: P2 membranes from rat forebrain were suspended in 5 mM tris(hydroxymethyl)aminomethane hydrochloride buffer (pH 7.4). A solution of the test compound in H2 O or DMSO/H2 O was added followed by a solution of ^3 H-TCP The mixture was incubated for 20 minutes at 30° C. and then injected onto a glass fiber filter. The filters were washed with cold buffer and placed in vials for subsequent liquid scintillation spectrometry. IC50 were calculated from the amount of tritium label retained on the filters.

| SMILES | times as active as the (-)-enantiomer in the 3H-TCP binding assay |
| --- | --- |
| CC12NC(CCc3ccsc31)c1ccccc12 (single isomer, unassigned; (+)) [(+)-enantiomer, (+)-11-methyl-4,5,6,11-tetrahydrobenzo[6,7]cycloocta[1,2-b]-thiophen-6,11-imine] | approximately eight |

Same assay, conditions: rat forebrain P2 membranes, pH 7.4, 20 minutes at 30° C.; upper bound stated for the group in micromolar

| SMILES | pIC50 |
| --- | --- |
| CC12NC(CCc3cc(Br)sc31)c1ccccc12 (stereo not drawn) [15 (free amine), 2-bromo-11-methyl-4,5,6,11-tetrahydrobenzo[6,7]cycloocta[1,2-b]thiophen-6,11-imine] | ≥ 5.70 |
| CSc1cc2c(s1)C1(C)NC(CC2)c2ccccc21 (stereo not drawn) [Example 14, 2-Methylthio-11-methyl-4,5,6,11-tetrahydrobenzo[6,7]-cycloocta[1,2-b]thiophen-6,11-imine] | ≥ 5.70 |
| c1ccc2c(c1)C1CCc3ccsc3C2N1 (stereo not drawn) [Example 4, 4,5,6,11-Tetrahydrobenzo[6,7]cycloocta[1,2-b]thiophen-6,11-imine] | ≥ 5.70 |
| CC12NC(CCc3cc(Cl)sc31)c1ccccc12 (stereo not drawn) [Example 16, 2-Chloro-11-methyl-4,5,6,11-tetrahydrobenzo[6,7]-cycloocta[1,2-b]thiophen-6,11-imine] | ≥ 5.70 |
| CC12NC(C=Cc3ccsc31)c1ccccc12 (stereo not drawn) [Example 18, 11-Methyl-6,11-dihydrobenzo[6,7]cycloocta[1,2-b]thiophen-6,11-imine] | ≥ 5.70 |

Same assay, conditions: rat forebrain P2 membranes, pH 7.4, 20 minutes at 30° C.; upper bound stated for the group in nanomolar

| SMILES | pIC50 |
| --- | --- |
| CC12NC(CCc3ccsc31)c1cc(F)ccc12 (stereo not drawn) [Example 22, 8-Fluoro-11-methyl-4,5,6,11-tetrahydrobenzo[6,7]-cycloocta[1,2-b]thiophen-6,11-imine] | ≥ 7.40 |
| Cc1ccc2c(c1)C1CCc3ccsc3C2(C)N1 (stereo not drawn) [Example 26, 8.11-Dimethyl-4,5,6,11-tetrahydrobenzo[6,7]cycloocta-[1,2-b]thiophen-6,11-imine] | ≥ 7.40 |
| CC12NC(CCc3ccsc31)c1ccccc12 (stereo not drawn) [Example 9, 11-Methyl-4,5,6,11-tetrahydrobenzo[6,7]cycloocta-[1,2-b]thiophen-6,11-imine] | ≥ 7.40 |
